Molecules are shown by their SMILES. Where a name gives a salt, the structure may show the parent alone. Read-outs that look alike come from different tables or passages of the source.

Consider 14 compounds from paper PMC8347176, “Novel High Affinity Sigma-1 Receptor Ligands from Minimal Ensemble Docking-Based Virtual Screening” (International Journal of Molecular Sciences, 2021).

Data set [1] has as its target T1, sigma-1 receptor (S1R) (Cavia porcellus, UniProt Q60492).
T1 construct: Guinea pig liver tissue preparation abundantly contains sigma-1 receptor as compared to other tissues; from tissue; host or cells: guinea pig liver membrane homogenate
Kind of data set: Sigma-1 receptor competitive radioligand binding assay with [3H](+)-pentazocine in guinea pig liver membranes. The procedure: Male Wistar-Harlan rats (n = 10, 225–250 g) and guinea pigs (n = 10, 350–400 g) were handled according to the European Communities Council Directive (2010/63/EU) and to the Regulations on Animal Protection (40/2013. (II. 14.) Korm. r.) of Hungary. The researchers did the best effort to minimize the number of animals and their suffering. Preparation of guinea pig and rat liver homogenates was performed according to a previous method with a slight modification. Euthanized male guinea pig and rats were killed by decapitation, and their livers were removed rapidly. Minced fresh livers were homogenized in ice-cold homogenization buffer (10 mM NaH2PO4 pH 7.4, 0.32 M sucrose, 1 mM MgSO4, 10 μg/mL leupeptin, 1 μg/mL pepstatin A, 5 μg/mL soybean trypsin inhibitor, 0.5 mM EGTA, 1 mM AEBSF) using a Braun Teflon-glass homogenizer at the highest rpm for 30 s. The homogenate was centrifuged at 17,000× g for 10 min (4 °C). Supernatant was recentrifuged at 100,000× g for 60 min at 4 °C. The resulting pellet was resuspended in 10 volumes homogenization buffer, homogenized by a glass homogenizer and stored in aliquots at −80 °C. The protein content of the samples was measured by the Bradford method and samples were diluted in assay buffer to obtain the appropriate amount for the assay.
Binding assays for the sigma-1 receptor were performed at 37 °C for 90 min in a 50 mM Tris–HCl binding buffer (pH 8.0) in plastic tubes in a total assay volume of 1 mL that contained 0.5 mg/mL of a membrane protein. […] The incubation was terminated by diluting the samples with an ice-cold wash buffer (50 mM of Tris–HCl, pH 8.0), followed by repeated washing and rapid filtration through Whatman GF/B glass fiber filters (Whatman Ltd., Maidstone, UK) presoaked with 0.1% polyethyleneimine. Filtration was performed with a 24-well Brandel Cell Harvester (Gaithersburg, MD, USA). Filters were air-dried and immersed into Ultima Gold MV scintillation cocktail, and then radioactivity was measured with a TRI-CARB 2100TR liquid scintillation analyzer (Packard, Perkin Elmer, Waltham, MA, USA).
(§1) The results of the competition binding studies are reported as means ± S.E.M. of at least three independent experiments each performed in duplicate. In competition binding studies, the inhibitory constants (Ki) were calculated from the inflection points of the displacement curves using nonlinear least-square curve fitting and the Cheng–Prusoff equation, Ki = EC50/(1 + [ligand]/Kd). All data and curves were analyzed by GraphPad Prism 5.0 (San Diego, CA, USA).

Data set [2] has as its target T2, sigma-2 receptor (S2R) (Rattus norvegicus, UniProt Q5U3Y7).
T2 construct: from tissue; host or cells: rat (male Wistar-Harlan) liver membrane homogenate
T2 sequence (Q5U3Y7 1-176): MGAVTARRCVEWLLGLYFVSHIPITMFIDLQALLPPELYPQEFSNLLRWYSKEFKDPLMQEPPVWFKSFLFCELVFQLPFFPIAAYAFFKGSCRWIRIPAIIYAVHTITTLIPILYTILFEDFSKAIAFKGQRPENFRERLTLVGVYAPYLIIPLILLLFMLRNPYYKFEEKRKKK
Put plainly: Sigma-2 receptor competitive radioligand binding assay with [3H]DTG in rat liver membranes, S1R masked with 100 nM (+)-pentazocine. The method, then: Male Wistar-Harlan rats (n = 10, 225–250 g) and guinea pigs (n = 10, 350–400 g) were handled according to the European Communities Council Directive (2010/63/EU) and to the Regulations on Animal Protection (40/2013. (II. 14.) Korm. r.) of Hungary. The researchers did the best effort to minimize the number of animals and their suffering. Preparation of guinea pig and rat liver homogenates was performed according to a previous method with a slight modification. Euthanized male guinea pig and rats were killed by decapitation, and their livers were removed rapidly. […] The protein content of the samples was measured by the Bradford method and samples were diluted in assay buffer to obtain the appropriate amount for the assay.
as §1

Data set [3] deals with S1R. Also on record: method as in PMID 16463398. The settings on record: cited from earlier work.

T1 sequence (Q60492 whole entry): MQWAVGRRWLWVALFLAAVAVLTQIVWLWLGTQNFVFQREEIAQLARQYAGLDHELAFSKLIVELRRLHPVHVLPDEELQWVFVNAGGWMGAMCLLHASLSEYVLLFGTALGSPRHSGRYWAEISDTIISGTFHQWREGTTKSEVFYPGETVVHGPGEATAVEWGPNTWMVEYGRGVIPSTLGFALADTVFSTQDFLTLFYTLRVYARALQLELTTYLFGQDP

In general, Ki refers to a measure of affinity in units of concentration, obtained from inhibition or displacement. On to `NN1C(=O)C2C3C=CC(C3)C2NC12CCN(Cc1ccccc1)CC2` (racemic) [L5, (±)-diendo-3′-amino-1-benzyl-5′,8′-methano-4′a,5′,8′,8′a-tetrahydrospiro[piperidine-4,2′(1′H)-quinazolin]-4′(3′H)-one], for which the Ki in data set [1] (read-out: Measured Ki) was found to be 463 nM.

As for `CCOc1cc2c(cc1OCC)[C@H]1CCN[C@@H](c3ccc(N(C)C)cc3)N1CC2` (relative stereo) [L10, (4R*,11bR*)-9,10-Diethoxy-4-[4-(dimethylamino)phenyl]-1,3,4,6,7,11b-hexahydro-2H-pyrimido[6,1-a]isoquinoline], the Ki in data set [1] (read-out: Measured Ki) came out at 2150 nM. The same measure, in the same setting: the value for `CCOc1cc2c(cc1OCC)[C@H]1[C@H](CSc3ccc(Cl)cc3)CN1CC2` (relative stereo) [L12, (1R*,9bR*)-1-{[(4-Chlorophenyl)thio]methyl}-7,8-diethoxy-1,4,5,9b-tetrahydro-2H-azeto[2,1a]-isoquinoline] was 3270 nM. Regarding `CC(C)=CCN1CC[C@]2(C)c3cc(O)ccc3C[C@H]1[C@H]2C` [(+)-pentazocine], in data set [2], the “displacement of [3H]DTG (partial)” value is 70–80%. Regarding `COc1cc2c(cc1OC)C(CCNCc1ccccc1)NCC2` (stereo not shown) [L1, N-Benzyl-6,7-dimethoxy-1,2,3,4-tetrahydro-1-isoquinolineethanamine dihydrochloride], in data set [1] (read-out: Measured Ki), the Ki amounted to 32 nM. The same measure, in the same setting: the value for `NC(CC(=O)NCc1cccc(C(F)(F)F)c1F)c1ccccc1` (stereo not shown) [L2, 3-Amino-N-(2-fluoro-3-(trifluoromethyl)benzyl]-3-phenylpropanamide hydrochloride] was 91 nM; that for `COc1ccc(OCC(O)CN2CCc3ccccc3C2)cc1` (stereo not shown) [L3, 1-[(4-Methoxyphenoxy)methyl]-2-(1,2,3,4-tetrahydroisoquinolin-2-yl)ethanol] was 110 nM.

One may read the melting point as the temperature of the solid-liquid transition. Compound `Cl.NC(CC(=O)NCc1cc(F)cc(C(F)(F)F)c1)c1ccccc1` (stereo not shown) [L4, 3-Amino-N-(3-fluoro-5-(trifluoromethyl)benzyl]-3-phenylpropanamide hydrochloride] yielded a melting point of 180 to 182 °C. Also, the Ki in data set [1] (read-out: Measured Ki) came out at 420 nM.

As to `Cn1c2c(c3ccccc31)CCNC2CNC(=O)OCc1ccccc1` (stereo not shown) [L6, N-Benzyloxycarbonyl-(9-methyl-2,3,4,9-tetrahydro-1H-pyrido[3,4-b]indol-1-yl)methanamine], the Ki in data set [1] (read-out: Measured Ki) stood at 1040 nM. As to `CC1(C)C2CC(O)C(O)(CNCc3ccccc3)CC21` [L7, (1S,3R,4R,6R)-3-(benzylamino)methyl)-7,7-dimethylbicyclo[4.1.0]heptane-3,4-diol], in data set [1] (read-out: Measured Ki), the Ki amounted to 1380 nM. Consider `CC(CN)C(=O)NCc1cccc(C(F)(F)F)c1F` (stereo not shown) [L8, 3-Amino-N-(2-fluoro-3-(trifluoromethyl)benzyl]-2-methylpropanamide trifluoroacetate], for which the Ki in data set [1] (read-out: Measured Ki) was 1530 nM.

As to `O=C(NCC1NCCc2c1[nH]c1ccccc21)OCc1ccccc1` (stereo not shown) [L9, N-Benzyloxycarbonyl-(2,3,4,9-tetrahydro-1H-pyrido[3,4-b]indol-1-yl)methanamine], the Ki in data set [1] (read-out: Measured Ki) came out at 1720 nM. As for `COc1cc(CCN2CCN(CCCc3ccccc3)CC2)ccc1OCCF` [fluoroethyl analog of S1R agonist SA4503], in data set [3], the KiS2R/KiS1R was 14.1. On to `COCCCC/C(=N\OCCN)c1ccc(C(F)(F)F)cc1` [fluvoxamine, reference compound], for which the Ki in data set [1] (read-out: S1R Ki ± S.E.M.) came out at 31 ± 3 nM. For the same compound, the “displacement of [3H]DTG (partial)” value in data set [2] is 70–80%.
